Experiment in all cases: Post-emergence test experiment (greenhouse pot, spray at 2-3 leaf stage)
Holding throughout (type): in vivo
Holding throughout (conditions): 1000 g/ha; post-emergence spray at 2-3 leaf stage; assessed after 3 weeks; fresh weight inhibition rate

In one assay the test system is Abutilon theophrasti. In short, it runs like this:
(§1)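 Activity graded levels 0-5 by fresh-weight inhibition (level 5 above 85%, level 0 below 5%), assessed 3 weeks after treatment. Plants grown in greenhouse pots were sprayed post-emergence at 2-3 leaves using acetone/tween-80 solutions with methyl oleate synergist (1.5 L/ha).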

For another assay, the system named is Monochoria vaginalis. In short, it runs like this:
as §1

Another assay has as its system Digitaria sanguinalis. In short, it runs like this: as §1
Another assay deals with Galium spurium. A digest of the protocol: as §1
For a further assay, the system named is Echinochloa crusgalli. A digest of the protocol: as §1

SMILES strings stand for the structures.

Regarding `COCOc1cccc(C)c1COC(=O)C(C)Oc1nc(F)c(Cl)c(N)c1Cl` (racemic) [Compound 110], the “Activity level (growth inhibition rate) Abutilon theophrasti” value in the assay with Abutilon theophrasti is 5 (Level 5: the growth inhibition rate is greater than 85%). The “Activity level (growth inhibition rate) Monochoria Vaginalis” value in the assay with Monochoria vaginalis is 5 (Level 5: the growth inhibition rate is greater than 85%). Also, the “Activity level (growth inhibition rate) Digitaria sanguinalis” value in the assay with Digitaria sanguinalis is on record as 5 (Level 5: the growth inhibition rate is greater than 85%). In addition, the “Activity level (growth inhibition rate) Galium spurium” value with Galium spurium is 5 (Level 5: the growth inhibition rate is greater than 85%). Moreover, the “Activity level (growth inhibition rate) Echinochloa crusgalli” value with Echinochloa crusgalli is reported as 5 (Level 5: the growth inhibition rate is greater than 85%).
Consider `CC(Oc1nc(F)c(Cl)c(N)c1Cl)C(=O)OCc1cc(Br)cc(C=O)c1` (racemic) [Compound 111], for which the “Activity level (growth inhibition rate) Abutilon theophrasti” value with Abutilon theophrasti is 5 (Level 5: the growth inhibition rate is greater than 85%). The “Activity level (growth inhibition rate) Monochoria Vaginalis” value in the assay on Monochoria vaginalis is given as 5 (Level 5: the growth inhibition rate is greater than 85%). Besides, the “Activity level (growth inhibition rate) Digitaria sanguinalis” value with Digitaria sanguinalis was 5 (Level 5: the growth inhibition rate is greater than 85%). For the same molecule, the “Activity level (growth inhibition rate) Galium spurium” value in the assay on Galium spurium is on record as 5 (Level 5: the growth inhibition rate is greater than 85%). Further, the “Activity level (growth inhibition rate) Echinochloa crusgalli” value with Echinochloa crusgalli is given as 5 (Level 5: the growth inhibition rate is greater than 85%).
Turning to `CC(Oc1nc(F)c(Cl)c(N)c1Cl)C(=O)OCc1cccc(Oc2ccccc2)c1` (racemic) [Compound 114], in the assay on Abutilon theophrasti, the “Activity level (growth inhibition rate) Abutilon theophrasti” value was 5 (Level 5: the growth inhibition rate is greater than 85%). The “Activity level (growth inhibition rate) Monochoria Vaginalis” value with Monochoria vaginalis is 5 (Level 5: the growth inhibition rate is greater than 85%). Also, in the assay with Digitaria sanguinalis, the “Activity level (growth inhibition rate) Digitaria sanguinalis” value is recorded as 5 (Level 5: the growth inhibition rate is greater than 85%). For the same molecule, the “Activity level (growth inhibition rate) Galium spurium” value with Galium spurium is recorded as 5 (Level 5: the growth inhibition rate is greater than 85%). Besides, the “Activity level (growth inhibition rate) Echinochloa crusgalli” value with Echinochloa crusgalli was 5 (Level 5: the growth inhibition rate is greater than 85%).
Take `CC(Oc1nc(F)c(Cl)c(N)c1Cl)C(=O)OCc1cccc(-c2cccnc2)c1` (racemic) [Compound 115]: the “Activity level (growth inhibition rate) Abutilon theophrasti” value in the assay with Abutilon theophrasti is on record as 5 (Level 5: the growth inhibition rate is greater than 85%). Moreover, the “Activity level (growth inhibition rate) Monochoria Vaginalis” value in the assay with Monochoria vaginalis is listed as 5 (Level 5: the growth inhibition rate is greater than 85%). In addition, in the assay on Digitaria sanguinalis, the “Activity level (growth inhibition rate) Digitaria sanguinalis” value is reported as 5 (Level 5: the growth inhibition rate is greater than 85%). In addition, the “Activity level (growth inhibition rate) Galium spurium” value with Galium spurium was 5 (Level 5: the growth inhibition rate is greater than 85%). Also, in the assay on Echinochloa crusgalli, the “Activity level (growth inhibition rate) Echinochloa crusgalli” value is reported as 5 (Level 5: the growth inhibition rate is greater than 85%).
Turning to `CC(Oc1nc(F)c(Cl)c(N)c1Cl)C(=O)OCc1cccnc1` (racemic) [Compound 116], the “Activity level (growth inhibition rate) Abutilon theophrasti” value in the assay with Abutilon theophrasti was 5 (Level 5: the growth inhibition rate is greater than 85%). Also, in the assay with Monochoria vaginalis, the “Activity level (growth inhibition rate) Monochoria Vaginalis” value is 5 (Level 5: the growth inhibition rate is greater than 85%). In addition, in the assay with Digitaria sanguinalis, the “Activity level (growth inhibition rate) Digitaria sanguinalis” value is on record as 5 (Level 5: the growth inhibition rate is greater than 85%). In addition, in the assay on Galium spurium, the “Activity level (growth inhibition rate) Galium spurium” value was 5 (Level 5: the growth inhibition rate is greater than 85%). Also, the “Activity level (growth inhibition rate) Echinochloa crusgalli” value with Echinochloa crusgalli is recorded as 5 (Level 5: the growth inhibition rate is greater than 85%).
As for `CC(Oc1nc(F)c(Cl)c(N)c1Cl)C(=O)OCc1ccncc1` (racemic) [Compound 117], the “Activity level (growth inhibition rate) Abutilon theophrasti” value in the assay on Abutilon theophrasti is 5 (Level 5: the growth inhibition rate is greater than 85%). In addition, the “Activity level (growth inhibition rate) Monochoria Vaginalis” value in the assay with Monochoria vaginalis was 5 (Level 5: the growth inhibition rate is greater than 85%). The “Activity level (growth inhibition rate) Digitaria sanguinalis” value in the assay with Digitaria sanguinalis is recorded as 5 (Level 5: the growth inhibition rate is greater than 85%). Also, the “Activity level (growth inhibition rate) Galium spurium” value in the assay on Galium spurium was 5 (Level 5: the growth inhibition rate is greater than 85%). Further, the “Activity level (growth inhibition rate) Echinochloa crusgalli” value in the assay with Echinochloa crusgalli is recorded as 5 (Level 5: the growth inhibition rate is greater than 85%).
Turning to `Cc1cc(CSC(=O)C(C)Oc2nc(F)c(Cl)c(N)c2Cl)ccn1` (racemic) [Compound 118], in the assay with Abutilon theophrasti, the “Activity level (growth inhibition rate) Abutilon theophrasti” value was 5 (Level 5: the growth inhibition rate is greater than 85%). The “Activity level (growth inhibition rate) Monochoria Vaginalis” value in the assay with Monochoria vaginalis is recorded as 5 (Level 5: the growth inhibition rate is greater than 85%). The “Activity level (growth inhibition rate) Digitaria sanguinalis” value in the assay with Digitaria sanguinalis is reported as 5 (Level 5: the growth inhibition rate is greater than 85%). Further, the “Activity level (growth inhibition rate) Galium spurium” value in the assay with Galium spurium is listed as 5 (Level 5: the growth inhibition rate is greater than 85%). Besides, the “Activity level (growth inhibition rate) Echinochloa crusgalli” value in the assay with Echinochloa crusgalli was 5 (Level 5: the growth inhibition rate is greater than 85%).
On to `CC(Oc1nc(F)c(Cl)c(N)c1Cl)C(=O)SCCc1cnccc1Cl` (racemic) [Compound 119], for which the “Activity level (growth inhibition rate) Abutilon theophrasti” value in the assay on Abutilon theophrasti was 5 (Level 5: the growth inhibition rate is greater than 85%). Moreover, in the assay on Monochoria vaginalis, the “Activity level (growth inhibition rate) Monochoria Vaginalis” value is reported as 5 (Level 5: the growth inhibition rate is greater than 85%). Also, the “Activity level (growth inhibition rate) Digitaria sanguinalis” value in the assay on Digitaria sanguinalis is given as 5 (Level 5: the growth inhibition rate is greater than 85%). The “Activity level (growth inhibition rate) Galium spurium” value with Galium spurium is on record as 5 (Level 5: the growth inhibition rate is greater than 85%). Moreover, the “Activity level (growth inhibition rate) Echinochloa crusgalli” value in the assay with Echinochloa crusgalli is on record as 5 (Level 5: the growth inhibition rate is greater than 85%).
In the case of `Cc1nc(OC(C)C(=O)OCc2ccccc2)c(Cl)c(N)c1Cl` (stereo not drawn) [Compound 5], in the assay with Abutilon theophrasti, the “Activity level (growth inhibition rate) Abutilon theophrasti” value is listed as 5 (Level 5: the growth inhibition rate is greater than 85%). In the assay with Monochoria vaginalis, the “Activity level (growth inhibition rate) Monochoria Vaginalis” value was 5 (Level 5: the growth inhibition rate is greater than 85%). The “Activity level (growth inhibition rate) Digitaria sanguinalis” value with Digitaria sanguinalis is listed as 5 (Level 5: the growth inhibition rate is greater than 85%). Besides, the “Activity level (growth inhibition rate) Galium spurium” value with Galium spurium is given as 5 (Level 5: the growth inhibition rate is greater than 85%). Also, the “Activity level (growth inhibition rate) Echinochloa crusgalli” value with Echinochloa crusgalli is 5 (Level 5: the growth inhibition rate is greater than 85%).
Consider `CC(Oc1nc(C(F)(F)F)c(Cl)c(N)c1Cl)C(=O)SCc1ccccc1` (stereo not drawn) [Compound 6], for which, in the assay on Abutilon theophrasti, the “Activity level (growth inhibition rate) Abutilon theophrasti” value was 5 (Level 5: the growth inhibition rate is greater than 85%). The “Activity level (growth inhibition rate) Monochoria Vaginalis” value in the assay with Monochoria vaginalis is recorded as 5 (Level 5: the growth inhibition rate is greater than 85%). Moreover, in the assay with Digitaria sanguinalis, the “Activity level (growth inhibition rate) Digitaria sanguinalis” value is on record as 5 (Level 5: the growth inhibition rate is greater than 85%). Besides, the “Activity level (growth inhibition rate) Galium spurium” value in the assay with Galium spurium is on record as 5 (Level 5: the growth inhibition rate is greater than 85%). The “Activity level (growth inhibition rate) Echinochloa crusgalli” value in the assay with Echinochloa crusgalli is 5 (Level 5: the growth inhibition rate is greater than 85%).
As for `CCc1c(OC(C)C(=O)SCc2ccccc2)nc(C(F)(F)F)c(CC)c1N` (stereo not drawn) [Compound 8], the “Activity level (growth inhibition rate) Abutilon theophrasti” value in the assay on Abutilon theophrasti is recorded as 5 (Level 5: the growth inhibition rate is greater than 85%). In the assay with Monochoria vaginalis, the “Activity level (growth inhibition rate) Monochoria Vaginalis” value is 5 (Level 5: the growth inhibition rate is greater than 85%). Further, the “Activity level (growth inhibition rate) Digitaria sanguinalis” value in the assay on Digitaria sanguinalis was 5 (Level 5: the growth inhibition rate is greater than 85%). Also, the “Activity level (growth inhibition rate) Galium spurium” value in the assay with Galium spurium is 5 (Level 5: the growth inhibition rate is greater than 85%). Further, the “Activity level (growth inhibition rate) Echinochloa crusgalli” value in the assay on Echinochloa crusgalli is reported as 5 (Level 5: the growth inhibition rate is greater than 85%).
Turning to `CC(Oc1ncc(C(C)C)c(N)c1Cl)C(=O)OCc1ccccc1` (stereo not drawn) [Compound 9], the “Activity level (growth inhibition rate) Abutilon theophrasti” value with Abutilon theophrasti was 5 (Level 5: the growth inhibition rate is greater than 85%). In addition, in the assay with Monochoria vaginalis, the “Activity level (growth inhibition rate) Monochoria Vaginalis” value is 5 (Level 5: the growth inhibition rate is greater than 85%). In addition, the “Activity level (growth inhibition rate) Digitaria sanguinalis” value in the assay with Digitaria sanguinalis was 5 (Level 5: the growth inhibition rate is greater than 85%). The “Activity level (growth inhibition rate) Galium spurium” value in the assay on Galium spurium is 5 (Level 5: the growth inhibition rate is greater than 85%). The “Activity level (growth inhibition rate) Echinochloa crusgalli” value with Echinochloa crusgalli is on record as 5 (Level 5: the growth inhibition rate is greater than 85%).
Regarding `CC(Oc1nc(Cl)c(C2CC2)c(N)c1Cl)C(=O)OCc1ccccc1` (stereo not drawn) [Compound 10], the “Activity level (growth inhibition rate) Abutilon theophrasti” value in the assay on Abutilon theophrasti is 5 (Level 5: the growth inhibition rate is greater than 85%). Further, the “Activity level (growth inhibition rate) Monochoria Vaginalis” value in the assay on Monochoria vaginalis is 5 (Level 5: the growth inhibition rate is greater than 85%). The “Activity level (growth inhibition rate) Digitaria sanguinalis” value with Digitaria sanguinalis is on record as 5 (Level 5: the growth inhibition rate is greater than 85%). In addition, the “Activity level (growth inhibition rate) Galium spurium” value in the assay with Galium spurium is 5 (Level 5: the growth inhibition rate is greater than 85%). Besides, the “Activity level (growth inhibition rate) Echinochloa crusgalli” value in the assay on Echinochloa crusgalli is reported as 5 (Level 5: the growth inhibition rate is greater than 85%).
As for `CC(Oc1nc(C(F)(F)F)c(F)c(N)c1C(C)C)C(=O)OCc1ccccc1` (stereo not drawn) [Compound 11], the “Activity level (growth inhibition rate) Abutilon theophrasti” value in the assay with Abutilon theophrasti was 5 (Level 5: the growth inhibition rate is greater than 85%). Besides, the “Activity level (growth inhibition rate) Monochoria Vaginalis” value with Monochoria vaginalis was 5 (Level 5: the growth inhibition rate is greater than 85%). Further, the “Activity level (growth inhibition rate) Digitaria sanguinalis” value in the assay on Digitaria sanguinalis is 5 (Level 5: the growth inhibition rate is greater than 85%). In addition, the “Activity level (growth inhibition rate) Galium spurium” value in the assay with Galium spurium is on record as 5 (Level 5: the growth inhibition rate is greater than 85%). Further, the “Activity level (growth inhibition rate) Echinochloa crusgalli” value in the assay on Echinochloa crusgalli was 5 (Level 5: the growth inhibition rate is greater than 85%).
Take `CC(Oc1ncc(I)c(N)c1I)C(=O)OCc1ccccc1` (stereo not drawn) [Compound 13]: the “Activity level (growth inhibition rate) Abutilon theophrasti” value with Abutilon theophrasti is reported as 5 (Level 5: the growth inhibition rate is greater than 85%). The “Activity level (growth inhibition rate) Monochoria Vaginalis” value with Monochoria vaginalis is 5 (Level 5: the growth inhibition rate is greater than 85%). The “Activity level (growth inhibition rate) Digitaria sanguinalis” value with Digitaria sanguinalis is given as 5 (Level 5: the growth inhibition rate is greater than 85%). In addition, the “Activity level (growth inhibition rate) Galium spurium” value in the assay with Galium spurium is 5 (Level 5: the growth inhibition rate is greater than 85%). The “Activity level (growth inhibition rate) Echinochloa crusgalli” value with Echinochloa crusgalli was 5 (Level 5: the growth inhibition rate is greater than 85%).
